Where a chain is given by its changes, count along the chain named.
What was measured:
Type in all cases: biochemical
[1] = molecular target: T1, maize endosperm AGPase, wild type (Bt2/Sh2) (Zea mays, UniProt P55241+Q84PF5); test: Apparent kinetic constants with 3-PGA, 37° C., wild type; details: read-out: ATP Km, Wt
T1 sequence (P55241 46-516): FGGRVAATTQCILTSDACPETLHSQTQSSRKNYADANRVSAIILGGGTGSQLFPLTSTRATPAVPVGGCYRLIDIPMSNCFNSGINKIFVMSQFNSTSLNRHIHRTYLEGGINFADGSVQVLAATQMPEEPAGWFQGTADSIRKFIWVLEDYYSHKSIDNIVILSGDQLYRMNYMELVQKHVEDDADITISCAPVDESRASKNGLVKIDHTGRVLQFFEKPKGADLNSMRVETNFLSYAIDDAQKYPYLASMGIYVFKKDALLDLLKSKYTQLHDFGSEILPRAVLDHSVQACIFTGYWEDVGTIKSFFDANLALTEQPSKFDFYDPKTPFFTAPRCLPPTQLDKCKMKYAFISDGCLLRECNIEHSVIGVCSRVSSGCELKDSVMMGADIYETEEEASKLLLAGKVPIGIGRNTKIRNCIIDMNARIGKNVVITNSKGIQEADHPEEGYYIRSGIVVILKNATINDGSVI
T1 sequence (Q84PF5 1-474): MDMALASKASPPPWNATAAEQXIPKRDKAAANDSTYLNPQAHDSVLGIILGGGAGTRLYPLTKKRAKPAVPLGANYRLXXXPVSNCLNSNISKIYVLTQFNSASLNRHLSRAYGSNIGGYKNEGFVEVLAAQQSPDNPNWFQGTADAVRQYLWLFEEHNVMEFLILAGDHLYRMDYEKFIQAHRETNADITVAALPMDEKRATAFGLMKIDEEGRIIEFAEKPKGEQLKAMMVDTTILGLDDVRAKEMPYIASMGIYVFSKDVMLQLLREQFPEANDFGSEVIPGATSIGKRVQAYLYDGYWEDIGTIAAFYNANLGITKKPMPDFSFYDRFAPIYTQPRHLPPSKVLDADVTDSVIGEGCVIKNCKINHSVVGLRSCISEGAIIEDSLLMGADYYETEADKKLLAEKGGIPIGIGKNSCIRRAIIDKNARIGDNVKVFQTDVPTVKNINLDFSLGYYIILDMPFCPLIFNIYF
From the text: The small and large subunit plasmids of maize endosperm AGPase (pMONcBt2 and pMONcSh2, respectively) (Giroux et al., 1996) were expressed in E. coli AC70R1-504 cells (Iglesias et al., 1993) as previously described (Boehlein et al., 2008).

[2] = molecular target: T2, maize endosperm AGPase, large subunit variant GGR (Q96G, D161G, A443R; numbering of SEQ ID NO: 20) (Zea mays, UniProt P55241+Q84PF5, A443R/D161G/Q96G); test: Kinetic constants in the absence of 3-PGA, GGR
T2 sequence (P55241 46-516 A443R/D161G/Q96G): T1 sequence (P55241 46-516) with Q51G, D116G, A398R
T2 sequence (Q84PF5 1-474): T1 sequence (Q84PF5 1-474)
Protocol: Reactions were performed for 10 min and terminated by boiling. Blank mixtures contained everything except ATP.
Based on the kinetic results (Table 10) and catalytic properties at 55° C. (Table 10) both D161G and GGR were selected for a more detailed kinetic analysis. […] The GGR mutant was primarily chosen based on its increased catalytic rate at 37° C. and high performance at 55° C. Its high activity in the absence of 3-PGA was also paramount. The first kinetic parameters determined were the Michaelis constants, the catalytic rate (kcat) and the dissociation constant (Kia) for the E-ATP complex, in the absence of 3-PGA. […] For the wt maize enzyme, this activator primarily responds by reducing the Km for both substrates, with little effect on the reaction rate (Boehlein et al., 2013). […] The kinetic mechanism established ATP as the first substrate to bind, thus the activator is no longer necessary for this first step. […] This variant also conditions both heat stability and high activity in the absence of an activator.

[3] = molecular target: T3, maize endosperm AGPase, evolutionary mutant SH2-E (Zea mays, UniProt P55241+Q84PF5); test: Apparent kinetic constants with 3-PGA, 37° C., SH2-E; details: read-out: ATP Km
T3 construct: data of Boehlein et al., 2013
Protocol: An endpoint assay was used to determine the rate of the AGPase reaction by coupling the formation of PPi to a decrease in NADH concentration (Boehlein et al., 2008). […] The Michaelis constants (Km) were obtained by varying one substrate in the presence of saturating concentrations of the second substrate. The activation constants were obtained by varying the activator at fixed levels of both substrates. All reactions were performed at 37° C. and mixes were prewarmed before starting the reaction with enzyme. […] The absorbance at 340 nm was monitored after 30 min and the amount of PPi produced was determined from a standard curve using PPi in complete reaction mixtures lacking AGPase. Blank samples contained complete reaction mixtures without enzyme and the change in absorbance between the blank and the reaction was used to calculate the amount of PPi produced. […]
The apparent Michaelis constant and maximum velocity of each reaction was calculated from a V vs. S plots using nonlinear regression analysis and the following equation, v=VmaxS/(Km+S), where v is the measured velocity, Vmax is the maximum velocity, S is the substrate concentration. […]
Each mutant, comprising 1, 2, 3 or 4 changes, was grown in a large scale culture, expressed and purified according to standard procedures (Boehlein et al., 2005). […] Next, the activation constant, Ka, was determined for each of the mutant enzymes. […]

T3 sequence (P55241 46-516, change not shown, one chain of several): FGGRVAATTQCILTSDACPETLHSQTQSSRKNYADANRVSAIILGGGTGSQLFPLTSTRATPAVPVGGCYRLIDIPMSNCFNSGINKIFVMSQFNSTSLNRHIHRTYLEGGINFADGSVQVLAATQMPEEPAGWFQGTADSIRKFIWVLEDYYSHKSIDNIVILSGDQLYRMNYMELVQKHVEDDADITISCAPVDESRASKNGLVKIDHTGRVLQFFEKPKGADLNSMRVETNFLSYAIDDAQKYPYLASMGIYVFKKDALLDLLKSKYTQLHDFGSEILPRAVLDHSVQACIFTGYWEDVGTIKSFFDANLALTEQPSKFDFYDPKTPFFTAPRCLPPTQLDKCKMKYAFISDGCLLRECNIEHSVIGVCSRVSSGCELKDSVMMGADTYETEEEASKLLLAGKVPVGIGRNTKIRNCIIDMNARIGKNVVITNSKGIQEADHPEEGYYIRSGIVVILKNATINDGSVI

**Q.** Which results are given for `Nc1ncnc2c1ncn2[C@@H]1O[C@H](COP(=O)(O)OP(=O)(O)OP(=O)(O)O)[C@@H](O)[C@H]1O` [ATP]?
**A.** Km [1]: 69 µM; kcat ([2]; ATP varied at fixed G-1-P): 72.4 s⁻¹; Km ([2]; read-out: ATP Km): 100 µM; Km [3]: 100 µM
